From ChEMBL document CHEMBL5518167, “Degradation of Polo-like Kinase 1 by the Novel Poly-Arginine N-Degron Pathway PROTAC Regulates Tumor Growth in Nonsmall Cell Lung Cancer” (J Med Chem, 2024) come the findings set out here.

Structures are written as SMILES. Active and inactive are the calls of the source. The rule behind the calls is not given here. Where a SMILES comes first, the peptide text is derived from it.

A short description of assay [1]: In vivo induction of PLK1 degradation in nude mouse xenografted with human NCI-H1975 cells assessed as reduction in PLK1 protein expression at 5 mg/kg, iv administered for every 3 days by Western blotting analysis. The format is functional. Also on record: scale not given: the % may be the effect or the level left. (In general: A xenograft is tissue or cells of one species grown in another, often human tumour cells in immunodeficient mice.)

Assay [2] has as its system UBR/PLK1 (Homo sapiens). The assay is described as follows: Protac activity at UBR/PLK1 in human HeLa cells assessed as PLK1 degradation at 50 uM preincubated for 24 hrs followed by MG132 addition for 8 hrs by immunoblotting analysis. The conditions noted are these: time 32.0 hrs. In general terms: Immunoblotting shows a protein as a band on a membrane.
Assay [3] has as its target E3 ubiquitin-protein ligase UBR2 (Homo sapiens) (UniProt Q8IWV8). The assay is described as follows: Binding affinity to UBR2 (unknown origin) expressed in HEK293T cells incubated for 3 hrs by pull-down assay. The format is cell-based.
The target of assay [4] is E3 ubiquitin-protein ligase UBR1 (Homo sapiens) (UniProt Q8IWV7). The assay is described as follows: Binding affinity to UBR1 (unknown origin) expressed in HEK293T cells incubated for 3 hrs by pull-down assay. Type of assay: cell-based.
In assay [5] the test system is UBR/PLK1 (Homo sapiens). The assay is described as follows: Protac activity at UBR/PLK1 in human HeLa cells assessed as PLK1 degradation at 75 uM incubated for 24 hrs by immunoblotting analysis.
The test system of assay [6] is UBR/PLK1 (Homo sapiens). The assay is described as follows: Protac activity at UBR/PLK1 in human HeLa cells assessed as PLK1 degradation at 50 uM by immunoblotting analysis. The conditions noted are these: time 2-48 hrs, TDE = time-dependent effect.
Assay [7] has as its system UBR/PLK1 (Homo sapiens). The assay is described as follows: Protac activity at UBR/PLK1 in human HeLa cells assessed as PLK1 degradation incubated for 24 hrs by immunoblotting analysis. The conditions noted are these: dose 25-100 µM.
For assay [8], the system named is UBR/PLK1 (Homo sapiens). The assay is described as follows: Protac activity at UBR/PLK1 in human HeLa cells assessed as PLK1 degradation at 50 uM incubated for 24 hrs by immunoblotting analysis.
In assay [9] the test system is UBR/PLK1 (Homo sapiens). The assay is described as follows: Protac activity at UBR/PLK1 in human HeLa cells assessed as PLK1 degradation at 50 uM after 24 to 48 hrs by immunoblotting analysis. The conditions noted are these: time 24-48 hrs.
Assay [10] has as its system UBR/PLK1 (Homo sapiens). The assay is described as follows: Protac activity at UBR/PLK1 in human HeLa cells assessed as PLK1 degradation at 100 uM incubated for 24 hrs by immunoblotting analysis.
For assay [11], the system named is A549. The assay is described as follows: Cytotoxicity against human A549 cells assessed as change in morphology at 25 uM incubated for 24 hrs by phase contrast microscopic assay. Type of assay: functional, cell-based.
Assay [12] relates to PC-9. The assay is described as follows: Cytotoxicity against human PC-9 cells at 0.8 to 50 uM incubated for 24 hrs by MTT assay. Type of assay: functional, cell-based. The conditions noted are these: dose 0.8-50 µM. (Tetrazolium assays rely on reduction of a dye to a coloured formazan, in cell work by metabolically active cells.)
For assay [13], the system named is PC-9. The assay is described as follows: Cytotoxicity against human PC-9 cells assessed as change in morphology at 25 uM incubated for 24 hrs by phase contrast microscopic assay. The format is functional, cell-based.
For assay [14], the system named is NCI-H1975. The assay is described as follows: Cytotoxicity against human NCI-H1975 cells assessed as change in morphology at 25 uM incubated for 24 hrs by phase contrast microscopic assay. The format is functional, cell-based.
Assay [15] deals with NCI-H1975. The assay is described as follows: Cytotoxicity against human NCI-H1975 cells at 0.8 to 50 uM incubated for 24 hrs by MTT assay. Type of assay: functional, cell-based. The conditions noted are these: dose 0.8-50 µM.
For assay [16], the system named is HeLa. The assay is described as follows: Cytotoxicity against human HeLa cells assessed as change in morphology at 18 uM incubated for 24 hrs by phase contrast microscopic assay. The format is functional, cell-based.
For assay [17], the system named is A549. The assay is described as follows: Cytotoxicity against human A549 cells at 0.8 to 50 uM incubated for 24 hrs by MTT assay. Type of assay: functional, cell-based. The conditions noted are these: dose 0.8-50 µM.
The target in assay [18] is Serine/threonine-protein kinase PLK1 (Homo sapiens, UniProt P53350). The assay is described as follows: Binding affinity to PLK1 PBD (unknown origin) by ITC method.
Assay [19] relates to HeLa. The assay is described as follows: Induction of cell cycle arrest in human HeLa cells at 10 uM incubated for 24 hrs by PI staining based flow cytometry analysis. Type of assay: functional.
Assay [20] has as its system PC-9. The assay is described as follows: Induction of cell cycle arrest in human PC-9 cells at 10 uM incubated for 24 hrs by PI staining based flow cytometry analysis. The format is functional.
For assay [21], the system named is NCI-H1975. The assay is described as follows: Induction of cell cycle arrest in human NCI-H1975 cells at 10 uM incubated for 24 hrs by PI staining based flow cytometry analysis. The format is functional.
The subject of assay [22] is A549. The assay is described as follows: Induction of cell cycle arrest in human A549 cells at 10 uM incubated for 24 hrs by PI staining based flow cytometry analysis. Type of assay: functional.

E3 ubiquitin-protein ligase UBR1 (Homo sapiens), sequence (Q8IWV7 whole entry): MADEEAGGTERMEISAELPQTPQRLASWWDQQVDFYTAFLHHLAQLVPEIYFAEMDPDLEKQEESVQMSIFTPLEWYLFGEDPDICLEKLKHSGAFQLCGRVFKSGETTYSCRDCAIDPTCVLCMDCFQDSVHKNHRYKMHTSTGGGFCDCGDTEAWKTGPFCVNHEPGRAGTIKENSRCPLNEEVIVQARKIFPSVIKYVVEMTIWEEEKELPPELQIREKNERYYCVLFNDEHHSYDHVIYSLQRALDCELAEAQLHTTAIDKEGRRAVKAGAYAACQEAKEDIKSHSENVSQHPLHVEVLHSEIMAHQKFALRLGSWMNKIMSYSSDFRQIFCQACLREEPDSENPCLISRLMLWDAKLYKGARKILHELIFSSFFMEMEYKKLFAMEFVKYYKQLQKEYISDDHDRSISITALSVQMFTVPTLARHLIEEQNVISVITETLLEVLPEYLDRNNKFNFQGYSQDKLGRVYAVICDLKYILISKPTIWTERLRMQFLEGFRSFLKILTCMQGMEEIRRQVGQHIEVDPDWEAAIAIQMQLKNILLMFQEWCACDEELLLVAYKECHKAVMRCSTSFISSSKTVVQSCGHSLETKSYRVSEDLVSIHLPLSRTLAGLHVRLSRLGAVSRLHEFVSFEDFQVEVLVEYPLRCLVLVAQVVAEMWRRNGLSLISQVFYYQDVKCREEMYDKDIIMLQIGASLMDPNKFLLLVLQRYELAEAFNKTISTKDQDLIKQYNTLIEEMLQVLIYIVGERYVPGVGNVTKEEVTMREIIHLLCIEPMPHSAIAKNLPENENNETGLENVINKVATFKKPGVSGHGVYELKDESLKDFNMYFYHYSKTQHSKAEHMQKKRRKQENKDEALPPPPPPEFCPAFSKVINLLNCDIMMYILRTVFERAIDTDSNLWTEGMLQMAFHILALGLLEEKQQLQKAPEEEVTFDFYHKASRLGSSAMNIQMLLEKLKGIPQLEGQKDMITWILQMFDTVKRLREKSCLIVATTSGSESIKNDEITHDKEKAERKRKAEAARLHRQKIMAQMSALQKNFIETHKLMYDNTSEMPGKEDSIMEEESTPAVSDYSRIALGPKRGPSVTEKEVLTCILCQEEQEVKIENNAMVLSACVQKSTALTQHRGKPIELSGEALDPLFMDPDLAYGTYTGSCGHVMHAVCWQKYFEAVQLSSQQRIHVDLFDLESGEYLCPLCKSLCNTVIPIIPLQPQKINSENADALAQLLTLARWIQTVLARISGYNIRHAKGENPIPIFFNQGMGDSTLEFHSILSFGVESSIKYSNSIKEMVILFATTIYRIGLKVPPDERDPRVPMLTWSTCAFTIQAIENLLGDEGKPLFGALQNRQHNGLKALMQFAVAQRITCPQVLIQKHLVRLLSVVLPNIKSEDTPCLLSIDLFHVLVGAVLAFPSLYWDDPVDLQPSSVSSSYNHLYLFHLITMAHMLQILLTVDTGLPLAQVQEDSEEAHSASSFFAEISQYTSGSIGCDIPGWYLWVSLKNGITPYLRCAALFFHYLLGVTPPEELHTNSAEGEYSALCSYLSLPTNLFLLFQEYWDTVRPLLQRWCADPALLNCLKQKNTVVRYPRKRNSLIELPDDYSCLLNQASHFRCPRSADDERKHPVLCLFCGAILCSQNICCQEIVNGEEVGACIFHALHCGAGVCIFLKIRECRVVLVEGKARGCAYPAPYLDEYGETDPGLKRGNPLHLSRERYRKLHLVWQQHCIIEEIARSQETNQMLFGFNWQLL
Serine/threonine-protein kinase PLK1, sequence (P53350 whole entry): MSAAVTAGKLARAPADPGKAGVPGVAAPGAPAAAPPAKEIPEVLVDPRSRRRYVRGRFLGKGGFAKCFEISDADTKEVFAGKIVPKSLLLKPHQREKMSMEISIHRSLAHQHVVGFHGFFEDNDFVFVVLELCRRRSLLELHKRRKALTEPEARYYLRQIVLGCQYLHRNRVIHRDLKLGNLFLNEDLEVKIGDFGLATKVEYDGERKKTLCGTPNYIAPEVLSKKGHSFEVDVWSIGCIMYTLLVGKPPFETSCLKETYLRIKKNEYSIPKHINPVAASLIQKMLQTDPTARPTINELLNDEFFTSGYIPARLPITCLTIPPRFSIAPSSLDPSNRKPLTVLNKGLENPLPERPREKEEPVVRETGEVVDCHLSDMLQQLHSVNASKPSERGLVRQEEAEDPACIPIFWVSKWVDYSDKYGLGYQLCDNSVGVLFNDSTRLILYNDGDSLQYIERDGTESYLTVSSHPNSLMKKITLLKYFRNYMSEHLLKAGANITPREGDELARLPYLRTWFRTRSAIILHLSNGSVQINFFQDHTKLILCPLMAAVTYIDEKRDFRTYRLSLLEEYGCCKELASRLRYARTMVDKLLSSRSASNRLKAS
E3 ubiquitin-protein ligase UBR2 (Homo sapiens), sequence (Q8IWV8 whole entry): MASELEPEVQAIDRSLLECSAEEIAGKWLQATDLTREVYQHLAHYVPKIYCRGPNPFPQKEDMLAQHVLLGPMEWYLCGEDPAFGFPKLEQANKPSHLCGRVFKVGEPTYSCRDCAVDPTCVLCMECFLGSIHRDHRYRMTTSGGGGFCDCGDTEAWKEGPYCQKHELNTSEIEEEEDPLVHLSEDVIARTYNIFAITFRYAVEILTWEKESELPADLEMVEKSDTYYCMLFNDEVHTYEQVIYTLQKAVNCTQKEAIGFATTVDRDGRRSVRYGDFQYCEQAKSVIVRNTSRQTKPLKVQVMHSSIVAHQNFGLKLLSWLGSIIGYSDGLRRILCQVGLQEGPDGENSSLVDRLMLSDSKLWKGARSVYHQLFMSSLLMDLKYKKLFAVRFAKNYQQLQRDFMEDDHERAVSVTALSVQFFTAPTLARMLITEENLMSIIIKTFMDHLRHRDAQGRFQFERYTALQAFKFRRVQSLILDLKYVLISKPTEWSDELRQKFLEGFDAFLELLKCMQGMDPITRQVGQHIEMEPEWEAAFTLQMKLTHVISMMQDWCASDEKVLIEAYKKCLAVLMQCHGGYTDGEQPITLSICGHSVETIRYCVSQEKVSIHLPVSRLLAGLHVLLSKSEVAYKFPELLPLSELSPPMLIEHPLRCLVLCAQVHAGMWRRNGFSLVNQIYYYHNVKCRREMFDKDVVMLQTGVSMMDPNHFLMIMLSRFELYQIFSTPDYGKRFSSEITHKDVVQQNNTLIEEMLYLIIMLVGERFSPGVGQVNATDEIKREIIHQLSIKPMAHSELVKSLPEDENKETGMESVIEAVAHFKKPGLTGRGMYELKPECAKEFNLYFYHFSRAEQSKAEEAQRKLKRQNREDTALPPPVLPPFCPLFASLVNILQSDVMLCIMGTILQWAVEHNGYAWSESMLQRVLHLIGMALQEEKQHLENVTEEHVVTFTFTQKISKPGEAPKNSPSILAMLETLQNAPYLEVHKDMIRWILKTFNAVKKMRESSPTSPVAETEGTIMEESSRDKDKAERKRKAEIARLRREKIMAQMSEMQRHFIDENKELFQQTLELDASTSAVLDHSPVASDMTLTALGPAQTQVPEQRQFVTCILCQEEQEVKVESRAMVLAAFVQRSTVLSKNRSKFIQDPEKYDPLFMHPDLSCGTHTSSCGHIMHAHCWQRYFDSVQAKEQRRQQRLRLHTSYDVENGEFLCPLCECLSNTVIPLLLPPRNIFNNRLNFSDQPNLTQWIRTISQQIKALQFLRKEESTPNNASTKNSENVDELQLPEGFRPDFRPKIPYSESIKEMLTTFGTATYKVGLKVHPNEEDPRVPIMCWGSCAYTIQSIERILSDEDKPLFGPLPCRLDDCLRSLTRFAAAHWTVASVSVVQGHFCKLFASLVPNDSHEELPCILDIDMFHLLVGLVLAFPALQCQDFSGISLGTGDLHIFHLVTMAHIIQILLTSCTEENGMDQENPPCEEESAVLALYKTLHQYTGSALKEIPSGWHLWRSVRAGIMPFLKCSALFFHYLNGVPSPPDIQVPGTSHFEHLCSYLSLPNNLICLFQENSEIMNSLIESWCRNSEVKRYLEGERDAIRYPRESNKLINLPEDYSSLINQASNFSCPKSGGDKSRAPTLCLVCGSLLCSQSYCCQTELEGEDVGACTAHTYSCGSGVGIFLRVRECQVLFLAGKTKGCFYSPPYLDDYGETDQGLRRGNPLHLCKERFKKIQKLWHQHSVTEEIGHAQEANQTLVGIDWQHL

Take `C=CC(=O)Nc1cc(Nc2nccc(-c3cn(C)c4ccccc34)n2)c(OC)cc1N(C)CCN(C)C` [OSIMERTINIB]: in [1], the Activity is over 60%.
For `CC(C)C[C@H](NC(=O)[C@H]1CCCN1C(=O)CCCCCNC(=O)[C@H](CCCNC(=N)N)NC(=O)[C@H](CCCNC(=N)N)NC(=O)[C@H](CCCNC(=N)N)NC(=O)[C@H](CCCNC(=N)N)NC(=O)[C@H](CCCNC(=N)N)NC(=O)[C@H](CCCNC(=N)N)NC(=O)[C@H](CCCNC(=N)N)NC(=O)[C@H](CCCNC(=N)N)NC(=O)[C@H](CCCNC(=N)N)NC(=O)[C@H](CCCNC(=N)N)NC(=O)[C@H](CCCNC(=N)N)NC(=O)[C@@H](N)CCCNC(=N)N)C(=O)N[C@@H](Cc1cnc[nH]1)C(=O)N[C@@H](CO)C(=O)N[C@H](C(N)=O)[C@@H](C)OP(=O)(O)O`, the outcome in the assay on UBR/PLK1 (Homo sapiens) [2] was inactive. For the same molecule, the result in [3] and in assay [4] was Active. For the same molecule, the Activity was 70% in the assay on UBR/PLK1 (Homo sapiens) [5]; “Tde” in the assay on UBR/PLK1 (Homo sapiens) [6]; “Dose-Dependent Effect” in the assay with UBR/PLK1 (Homo sapiens) [7]; 60% in the assay on UBR/PLK1 (Homo sapiens) [8]; 90% with UBR/PLK1 (Homo sapiens) [9]; 70% in the assay with UBR/PLK1 (Homo sapiens) [10].
`C[C@@H](OP(=O)(O)O)[C@@H]1NC(=O)[C@H](Cc2cncn2CCCCCCCCc2ccccc2)NC(=O)[C@@H](N)CCC(=O)NCCCC[C@@H](C(N)=O)NC1=O` (HELM PEPTIDE1{E.[O=C([C@H](Cc1cncn1CCCCCCCCc1ccccc1)N[*:1])[*:2]].[C[C@@H](OP(=O)(O)O)[C@H](N[*:1])C(=O)[*:2]].K.[am]}$PEPTIDE1,PEPTIDE1,1:R3-4:R3$$$V2.0): the outcome in the assay with A549 [11], with PC-9 [12], in the assay with PC-9 [13], in the assay on NCI-H1975 [14], in the assay on NCI-H1975 [15] and with HeLa [16] was inactive. Moreover, in the assay with A549 [17], the outcome was inactive.
As to `CC(C)C[C@H](NC(=O)[C@@H]1CCCN1C(=O)CCCCCNC(=O)[C@H](CCCNC(=N)N)NC(=O)[C@H](CCCNC(=N)N)NC(=O)[C@H](CCCNC(=N)N)NC(=O)[C@H](CCCNC(=N)N)NC(=O)[C@H](CCCNC(=N)N)NC(=O)[C@H](CCCNC(=N)N)NC(=O)[C@H](CCCNC(=N)N)NC(=O)[C@H](CCCNC(=N)N)NC(=O)[C@H](CCCNC(=N)N)NC(=O)[C@H](CCCNC(=N)N)NC(=O)[C@H](CCCNC(=N)N)NC(=O)[C@@H](N)CCCNC(=N)N)C(=O)N[C@@H](Cc1cnc[nH]1)C(=O)N[C@@H](CO)C(=O)N[C@H](C(N)=O)[C@@H](C)OP(=O)(O)O`, the dissociation constant Kd (as a rule, the free concentration of one partner at which half of the binding sites on the other are occupied at equilibrium, for simple one-to-one binding) in assay [18] came out at 2200 nM.
As for `N=C(N)NCCC[C@H](NC(=O)[C@H](CCCNC(=N)N)NC(=O)[C@H](CCCNC(=N)N)NC(=O)[C@H](CCCNC(=N)N)NC(=O)[C@H](CCCNC(=N)N)NC(=O)[C@H](CCCNC(=N)N)NC(=O)[C@H](CCCNC(=N)N)NC(=O)[C@H](CCCNC(=N)N)NC(=O)[C@H](CCCNC(=N)N)NC(=O)[C@H](CCCNC(=N)N)NC(=O)[C@H](CCCNC(=N)N)NC(=O)[C@@H](N)CCCNC(=N)N)C(N)=O`, the outcome in the assay with A549 [11], with HeLa [19], in the assay with PC-9 [12], in the assay on PC-9 [20], with PC-9 [13] and with NCI-H1975 [21] was inactive. For the same molecule, the outcome with A549 [22], in the assay with NCI-H1975 [14], with NCI-H1975 [15], with HeLa [16] and with A549 [17] was inactive.
